In article PMC5771956 (Nature chemical biology, 2017):
“Also recorded” adds a separate entry of the source.

Experiments:
D2 I184A^EL2 mutant [1] = target: T1, D2 I184A^EL2 mutant (Homo sapiens, UniProt P14416, I184A); test: Competitive binding kinetics with [3H] NMSP at I184A mutant
[2] = target: T2, D2 dopamine receptor (D2R) (Homo sapiens, UniProt P14416); test: Bias calculation, Gi/o activity versus β-arrestin2 recruitment; format: cell-based; conditions: for bias factor: arrestin recruitment over Gi/o signaling, relative to quinpirole
T2 sequence (P14416 whole entry): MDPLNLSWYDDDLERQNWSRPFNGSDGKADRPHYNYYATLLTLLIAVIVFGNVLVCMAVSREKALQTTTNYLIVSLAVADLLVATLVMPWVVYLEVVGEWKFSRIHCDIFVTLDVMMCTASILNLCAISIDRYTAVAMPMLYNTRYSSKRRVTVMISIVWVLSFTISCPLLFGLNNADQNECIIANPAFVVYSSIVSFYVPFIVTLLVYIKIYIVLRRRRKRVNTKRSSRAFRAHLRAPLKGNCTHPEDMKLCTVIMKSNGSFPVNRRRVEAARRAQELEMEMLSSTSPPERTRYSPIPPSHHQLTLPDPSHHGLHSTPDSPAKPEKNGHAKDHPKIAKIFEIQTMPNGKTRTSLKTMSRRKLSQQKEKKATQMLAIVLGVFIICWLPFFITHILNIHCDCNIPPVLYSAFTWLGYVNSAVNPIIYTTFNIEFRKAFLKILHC

human D2Long = human D2Long (Homo sapiens, UniProt P14416); test: cell-based; conditions: for Emax: read-out: D2 β-arrestin2 Emax, D2 wild-type, Tango, normalized to quinpirole
human D2Long, sequence (P14416 whole entry): as above

D2 I184A^EL2 mutant [3] = target: T1, D2 I184A^EL2 mutant; test: cell-based; format: cell-based; conditions: for effect of I184A mutation on β-arrestin2 recruitment: Tango
[4] = target: T2, D2 dopamine receptor (D2R); test: cell-based; conditions: for Emax: read-out: D2 Gi/o Emax, D2 wild-type, normalized to quinpirole
[5] = test system: β2AR EL2.52 F194 mutants (alanine, leucine, isoleucine); test: β-arrestin2 recruitment by Tango at β2AR EL2 mutants; format: cell-based

T1 sequence (P14416 whole entry I184A): as the sequence (P14416 whole entry) above, with I184A counted along it

SMILES	bias factor [2]	Emax (human D2Long) [%]	effect of I184A mutation on β-arrestin2 recruitment (D2 I184A^EL2 mutant [3])	Emax [4] [%]	also measured
Cc1cc2c(N3CCN(CCCCOc4ccc5c(c4)NC(=O)CC5)CC3)cccc2n1C [compound 7, 7-(4-(4-(1,2-Dimethyl-1H-indol-4-yl)piperazin-1-yl)butoxy)-3,4-dihydroquinolin-2(1H)-one]	20	78	almost completely abolishes	60	increase in off-rate at I184A compared to D2R wild-type (D2 I184A^EL2 mutant [1]): 6.2 fold; increase in on-rate at I184A compared to D2R wild-type (D2 I184A^EL2 mutant [1]): 6.7 fold
Clc1cccc(C2CCN(CCCOc3ccc4scnc4c3)CC2)c1Cl [UNC 9994, reference compound]	–	–	no change in arrestin recruitment efficacy	–	–
CC(C)NC[C@H](O)c1ccc(O)c(O)c1 [isoproterenol, (−)-isoproterenol bitartrate]	–	–	–	–	β-arrestin2 recruitment at β2AR EL2 mutants [5]: substantially reduced
Cc1cc2c(N3CCN(CCCCOc4ccc5c(c4)NC(=O)CC5)CC3)cccc2[nH]1 [compound 6, 7-(4-(4-(2-methyl-1H-indol-4-yl)piperazin-1-yl)butoxy)-3,4-dihydroquinolin-2(1H)-one]	1.3	78	selectively abolishing; also recorded: partial but not complete loss of arrestin recruitment efficacy	86	SFSR summary (signaling profile) ([2]; Gi/o versus arrestin activity): no preference for arrestin recruitment over G protein activation; EC50 (human D2Long): 0.62 nM; EC50 (D2 I184A^EL2 mutant [3]): 2.7 nM; Emax (D2 I184A^EL2 mutant [3]; read-out: β-arrestin2 Emax at I184A): 40%; EC50 [4]: 0.49 nM
O=C1CCc2ccc(OCCCCN3CCCN(c4cccc(Cl)c4Cl)CC3)nc2N1 [UNC 9975, reference compound]	–	–	no change in arrestin recruitment efficacy	–	–
